Results taken from patent publication US9409884B2 (Rigel Pharmaceuticals, Inc., priority 2012, dated 2016).

Molecular target: AMPK
Assay: AMPK activation, enzyme-linked immunosorbent assay
Type: biochemical
Conditions: Table 10, compounds of Table 3
Procedure, shortened: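 AMPK activation by test compounds was measured by enzyme-linked immunosorbent assay.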

| Compound | EC50 [nM] |
| --- | --- |
| N#Cc1ccc(CN2CCC(NC(=O)c3nc4ccc(OC5CCN(c6ccc(C(F)(F)F)cc6)CC5)cc4s3)CC2)cc1 [Compound 3-16, N-(1-(4-cyanobenzyl)piperidin-4-yl)-6-(1-(4-(trifluoromethyl)phenyl)piperidin-4-yloxy)benzo[d]thiazole-2-carboxamide] | 100 to 1000 |
| O=C(NC1CCN(Cc2ccncc2)CC1)c1cn2ccc(OC3CCN(c4ccc(C(F)(F)F)cc4)CC3)cc2n1 [Compound 3-17, N-(1-(pyridin-4-ylmethyl)piperidin-4-yl)-7-(1-(4-(trifluoromethyl)phenyl)piperidin-4-yloxy)imidazo[1,2-a]pyridine-2-carboxamide] | < 100 |
| N#Cc1ccc(CN2CCC(NC(=O)c3cn4ccc(OC5CCN(c6ccc(C(F)(F)F)cc6)CC5)cc4n3)CC2)cc1 [Compound 3-18, N-(1-(4-cyanobenzyl)piperidin-4-yl)-7-(1-(4-(trifluoromethyl)phenyl)piperidin-4-yloxy)imidazo[1,2-a]pyridine-2-carboxamide] | < 100 |
| CC(C)(C)OC(=O)N1CCC(NC(=O)c2cnc(OC3CCN(c4ccc(C(F)(F)F)cc4)CC3)cn2)CC1 [Compound 3-19, tert-butyl 4-(5-(1-(4-(trifluoromethyl)phenyl)piperidin-4-yloxy)pyrazine-2-carboxamido)piperidine-1-carboxylate] | 1000 to 10000 |
| O=C(NC1CCN(Cc2ccncc2)CC1)c1cnc(OC2CCN(c3ccc(C(F)(F)F)cc3)CC2)cn1 [Compound 3-21, N-(1-(pyridin-4-ylmethyl)piperidin-4-yl)-5-(1-(4-(trifluoromethyl)phenyl)piperidin-4-yloxy)pyrazine-2-carboxamide] | < 100 |
| N#Cc1ccc(CN2CCC(NC(=O)c3cnc(OC4CCN(c5ccc(C(F)(F)F)cc5)CC4)cn3)CC2)cc1 [Compound 3-22, N-(1-(4-cyanobenzyl)piperidin-4-yl)-5-(1-(4-(trifluoromethyl)phenyl)piperidin-4-yloxy)pyrazine-2-carboxamide] | < 100 |
| N#Cc1ccc(CN2CCC(NC(=O)c3cnc(OC4CCN(c5ccc(C(F)(F)F)cc5)CC4)s3)CC2)cc1 [Compound 3-23, N-(1-(4-cyanobenzyl)piperidin-4-yl)-2-(1-(4-(trifluoromethyl)phenyl)piperidin-4-yloxy)thiazole-5-carboxamide] | < 100 |
| N#Cc1ccc(CN2CCC(NC(=O)c3cnc(OC4CCN(c5ccc(C#N)cc5)CC4)s3)CC2)cc1 [Compound 3-24, N-(1-(4-cyanobenzyl)piperidin-4-yl)-2-(1-(4-cyanophenyl)piperidin-4-yloxy)thiazole-5-carboxamide] | < 100 |
| N#Cc1ccc(CN2CCC(NC(=O)c3cnc(OC4CCN(Cc5ccc(C(F)(F)F)cc5)CC4)s3)CC2)cc1 [Compound 3-25, N-(1-(4-cyanobenzyl)piperidin-4-yl)-2-(1-(4-(trifluoromethyl)benzyl)piperidin-4-yloxy)thiazole-5-carboxamide] | < 100 |
| CC(C)(C)OC(=O)N1CCC(Oc2ncc(C(=O)NC3CCN(Cc4ccc(C#N)cc4)CC3)s2)CC1 [Compound 3-26, tert-butyl 4-(5-(1-(4-cyanobenzyl)piperidin-4-ylcarbamoyl)thiazol-2-yloxy)piperidine-1-carboxylate] | 1000 to 10000 |
| N#Cc1ccc(CN2CCC(NC(=O)c3ccc(C(=O)N4CCN(Cc5ccc(Cl)cc5)CC4)cc3)CC2)cc1 [Compound 3-28, 4-(4-(4-chlorobenzyl)piperazine-1-carbonyl)-N-(1-(4-cyanobenzyl)piperidin-4-yl)benzamide] | < 100 |
| N#Cc1ccc(CN2CCC(NC(=O)c3ccc(C(=O)N4CCN(c5ccc(Cl)cc5)CC4)cc3)CC2)cc1 [Compound 3-29, 4-(4-(4-chlorophenyl)piperazine-1-carbonyl)-N-(1-(4-cyanobenzyl)piperidin-4-yl)benzamide] | 10000 to 100000 |
| N#Cc1ccc(CN2CCC(NC(=O)c3ccc(C(=O)N4CCN(c5ccc(C(F)(F)F)cn5)CC4)cc3)CC2)cc1 [Compound 3-30, N-(1-(4-cyanobenzyl)piperidin-4-yl)-4-(4-(5-(trifluoromethyl)pyridin-2-yl)piperazine-1-carbonyl)benzamide] | < 100 |
